# Counter-ions that a name gives are not always drawn.
# Experiments:
# [1] = cited from earlier work
# [2] = cited from earlier work; remark: listed apart in the source
# [3] = test system: term human placenta (single cotyledon); experiment: ex vivo human placental perfusion, single cotyledon, open system; conditions: range over placentas
# [4] = cited from earlier work; remark: listed apart in the source
# [5] = test system: term human placenta (single cotyledon); experiment: ex vivo human placental perfusion, closed-closed recirculation system; format: in vitro ADME; conditions: system closed for 1-5 h; peak and trough concentrations
smiles,measurement,setting,value
"CN[C@H](CC(C)C)C(=O)N[C@H]1C(=O)N[C@@H](CC(N)=O)C(=O)N[C@H]2C(=O)N[C@H]3C(=O)N[C@H](C(=O)N[C@H](C(=O)O)c4cc(O)cc(O)c4-c4cc3ccc4O)[C@H](O)c3ccc(c(Cl)c3)Oc3cc2cc(c3O[C@@H]2O[C@H](CO)[C@@H](O)[C@H](O)[C@H]2O[C@H]2C[C@](C)(N)[C@H](O)[C@H](C)O2)Oc2ccc(cc2Cl)[C@H]1O [vancomycin, vancomycin hydrochloride]",fraction bound to plasma proteins (unavailable for transfer),[1],a third to a half
same,bound to plasma proteins,[1]; non-pregnant subjects,30-55%
same,heparin concentration above which vancomycin precipitates when mixed,[2],more than 1 unit/ml
same,"Clearance index, mean peak range",[3]; peak concentrations,0.000-0.080
same,"Clearance index, mean trough range",[3]; trough concentrations,0.00-0.17
same,excreted by glomerular filtration,[4]; non-pregnant subjects,90%
same,CSF levels,[4]; without meningitis,undetectable
same,accumulation of vancomycin (fetal),[5],No accumulation
